Results on two compounds are retold here after paper PMC11167047 (Cell Death Discovery, 2024).

In experiment [1] the test system is 335 wild-type protein kinases. The experiment in a line: kinome screen, selectivity score. The format is biochemical. The method, then: (§1) The Kinome Screening was performed by Reaction Biology Europe GmbH (http://reactionbiology.com; Freiburg i. Br., Germany). […] A kinase inhibition profile of the three meriolins was determined by measuring residual activity at two concentrations each in single values in 335 wild-type protein kinase assays.
The selectivity score was calculated as: SelectivityScore=Countofdatapoints<50%/(Totalnumberofdatapoints)

Experiment [2] concerns retinoblastoma (RB) protein phosphorylation. Briefly: immunoblotting of phospho-RB in Ramos cells. To be noted: for phosphorylation of RB at p-Ser249 and p-Thr252: 0.1 or 1 µM (R547 1 µM). The format is cell-based, human. The protocol:
Cells were seeded at a density of 2 × 10^6 cells, treated as specified and harvested by centrifugation at 3000 rpm for 5 min, followed by freezing in liquid nitrogen. The cell pellets were thawed on ice and quick-frozen and defrozen in liquid nitrogen for three times, then lysed on ice in lysis buffer (20 mM Tris-HCl, 150 mM NaCl, 1% v/v Triton X-100, 0.5 mM EDTA, 10 mM NaF, 2.5 mM Na4P2O7, protease inhibitor (Sigma, #P2714)) for 30 min, accompanied by vortexing. Subsequently, centrifugation 13,300 rpm for 15 min purified cell lysates from cell debris. The supernatant was transferred to a new tube and the protein concentration was determined by Bradford assay. The samples were diluted with sample buffer. SDS-Page and Western Blot were conducted in accordance with standard workflows. […] The antibody baths were stored at 4 °C and re-used.
The density of the individual protein band was determined using Image Studio^TM Lite Version 5.2. The density of each protein was divided by the average of all bands of this protein. The ratios of the protein of interest were normalized to the ratio of the respective loading control. To determine the fold change, each normalized ratio was divided by the normalized band of the control line (untreated cells). Fold change is 1 for the control line, n ≥ 2. The results are shown as mean ± standard deviation and were visualized with GraphPad Prism 7.

The next experiment deals with HeLa cells. The experiment in a line: EdU incorporation by microscopy. The format is cell-based, human. As to conditions: 24 h, non-lethal dose (IC25). The protocol:
The EdU-assay, utilizing the EdU-click 488 kit from Baseclick GmbH (#BCK-TCell-FC488) was performed according to manufacturer’s instructions. The EdU-assay is employed to measure the incorporation of 5-ethynyl-2’-deoxyuridine (EdU) into DNA, providing a means to assess cell proliferation. Cell proliferation involves the synthesis of new DNA during the S phase of the cell cycle. When cells are exposed to 5-EdU, they incorporate the compound into their DNA at thymidine bases during S phase. A fluorophore-labeled azide reacts with the incorporated EdU, enabling its detection through microscopy (sigmaaldrich.com). The experimental process involves seeding cells and allowing them to grow to the desired density, applying the indicated treatments, and subsequently adding EdU to the media. After fixation and permeabilization, the EdU detection, along with DAPI-stained nuclei, is carried out using fluorescence microscopy.

The target in a further experiment is T1, DYRK4 (Homo sapiens, UniProt Q9NR20).
T1 construct: purchased Reaction Biology Europe GmbH (formerly ProQinase)
T1 sequence (Q9NR20 1-520): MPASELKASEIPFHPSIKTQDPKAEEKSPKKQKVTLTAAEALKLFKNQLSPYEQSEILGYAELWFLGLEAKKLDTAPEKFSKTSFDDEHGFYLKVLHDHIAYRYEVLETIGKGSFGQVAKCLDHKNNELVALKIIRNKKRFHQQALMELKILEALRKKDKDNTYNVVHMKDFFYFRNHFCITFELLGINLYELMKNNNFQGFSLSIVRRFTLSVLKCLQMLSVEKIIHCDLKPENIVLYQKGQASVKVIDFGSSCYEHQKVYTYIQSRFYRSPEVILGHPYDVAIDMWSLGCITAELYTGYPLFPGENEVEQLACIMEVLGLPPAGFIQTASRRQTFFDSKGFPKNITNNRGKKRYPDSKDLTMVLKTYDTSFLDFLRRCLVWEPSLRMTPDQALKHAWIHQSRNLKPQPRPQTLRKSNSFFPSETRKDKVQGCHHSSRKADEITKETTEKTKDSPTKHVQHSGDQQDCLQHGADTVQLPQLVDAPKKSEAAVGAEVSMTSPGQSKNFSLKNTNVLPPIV
The experiment in a line: kinome screen (33PanQinase). The format is biochemical. The protocol:
as §1
The residual activity was calculated as: Res.Activity%=100x(Signalofcompound−lowcontrol/highcontrol−lowcontrol)

Another experiment relates to SUPB15. To be noted: read-out: IC50 (SUPB15); cytotoxicity, 24 h.
In the next experiment the test system is K562. To be noted: read-out: IC50 (K562); cytotoxicity, 24 h.
In another experiment the test system is HL60. As to conditions: read-out: IC50 (HL60); cytotoxicity, 24 h.
Another experiment concerns Jurkat. To be noted: read-out: IC50 (Jurkat); cytotoxicity, 24 h.
The subject of experiment [3] is CLL68 chronic lymphocytic leukemia cells. To be noted: read-out: IC50 (CLL68); primary patient cells, 24 h.
Description: (§2) For chronic lymphocytic leukemia, mononuclear cells were isolated from peripheral blood using a Ficoll gradient (GE Healthcare). Primary cells from other lymphoma entities were isolated as previously described [80]. All cells were cryopreserved after isolation and thawed as previously described [81].
(§3) The resazurin reduction assay, which is also known as AlamarBlue® assay, was used for the determination of cell viability in all cytotoxicity determinations shown in the present work, as previously described [22]. Briefly, cells were seeded at a specific density depending on the incubation time (24 h: 1 × 10^6 cells/ml) in a 96-well plate and incubated with increasing compound concentrations (0.01–30 µM). After the specified treatment time, resazurin (Sigma, #R7017) was added to a final concentration of 40 µM. […] The viability of control cells was set to 100% and all other values were normalized to the control condition, the dose-response curves were then fitted with Prism v7.01 (GraphPad software, La Jolla, CA, USA).
In experiment [4] the test system is FL169 follicular lymphoma cells. To be noted: read-out: IC50 (FL169); primary patient cells, 24 h.
Description: as §2, §3

Protocol for HL60: (§4) The resazurin reduction assay, which is also known as AlamarBlue® assay, was used for the determination of cell viability in all cytotoxicity determinations shown in the present work, as previously described [22]. Briefly, cells were seeded at a specific density depending on the incubation time (24 h: 1 × 10^6 cells/ml) in a 96-well plate and incubated with increasing compound concentrations (0.01–30 µM). After the specified treatment time, resazurin (Sigma, #R7017) was added to a final concentration of 40 µM. […] The viability of control cells was set to 100% and all other values were normalized to the control condition, the dose-response curves were then fitted with Prism v7.01 (GraphPad software, La Jolla, CA, USA). The reduction of resazurin to resorufin is proportional to aerobic respiration; therefore, it is used as a measure for the cell viability and cytotoxicity of a tested compound.
Protocol for Jurkat: as §4
Protocol for K562: as §4
Protocol for SUPB15: as §4

The term IC50 denotes the concentration needed to halve the response being measured. Regarding `c1ccc(CNc2cc(-c3c[nH]c4ncccc34)ccn2)cc1` [meriolin 36], the “Selectivity Score (< 50% residual activity)” value in experiment [1] (0.3 µM) is 0.397; in [1] (3 µM), 0.752. Also, the “phosphorylation of RB at Ser612” value in [2] (0.1 and 1 µM) is “increase of the phosphorylation”. For the same compound, the “phosphorylation of RB at p-Thr821” value in experiment [2] (0.1 and 1 µM (R547 1 µM), up to 24 h) is on record as “no notable change”. In [2] (0.1 and 1 µM, up to 24 h), the “phosphorylation of RB at p-Ser612 and p-Thr821” value is “This effect was not observed”. Besides, the “phosphorylation of RB at p-Ser249 and p-Thr252” value in experiment [2] (up to 24 h) is recorded as “no effect”. Moreover, in the experiment with HeLa cells, the “EdU incorporation (proliferation) reduced to” value was 10%. Also, the residual kinase activity at DYRK4 (0.3 µM) is recorded as 66 % of control; at DYRK4 (3 µM), 22 % of control. In addition, the concentration for half-maximal inhibition (IC50) in the experiment on SUPB15 amounted to 1650 nM; with K562, 940 nM; with HL60 it was 1230 nM; with Jurkat it was 1430 nM; in [3], 420 nM; in experiment [4], 100 nM.
Take `COc1ccnc2[nH]cc(-c3cc(N)nc(N)c3)c12` [meriolin 16]: the “Selectivity Score (< 50% residual activity)” value turned out to be 0.140 in experiment [1] (0.03 µM) and 0.284 in experiment [1] (0.3 µM). Also, the “phosphorylation of RB at p-Ser612 and p-Thr821” value is given as “no longer phosphorylated” in experiment [2] (0.1 and 1 µM, up to 24 h); “loss of the phosphorylations” in [2] (0.1 and 1 µM, up to 24 h, listed as Meriolin 16). In addition, the “phosphorylation of RB at p-Ser249 and p-Thr252” value in [2] (up to 24 h) is reported as “reduced the phosphorylation”. For the same compound, the “EdU incorporation (proliferation) reduced to” value in the experiment on HeLa cells is on record as 10%. The residual kinase activity on DYRK4 (0.03 µM) is listed as 39 % of control; on DYRK4 (0.3 µM), 7 % of control. The IC50 came to 20 nM with SUPB15; 40 nM with K562; 10 nM in the experiment with HL60; 30 nM with Jurkat; 60 nM in [3]; 2820 nM in experiment [4].
